# Experimental data reported in the supplement of paper PMC10307832.
# Assays:
# Test in all cases: relative viability (nuclei count vs DMSO), 5 days (fraction); higher = more cells survive
# A549 = tested on: A549
# Procedure, shortened: (§1)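 Values are medians from duplicate plates. Each reflects relative viability, defined as the nuclei count of treated wells over that of vehicle wells. Lung cancer cell lines in 1536-well plates were pin-tool dosed one day after seeding with one drug alone or with a fixed anchor-drug dose plus five library-drug doses (not always all listed) in √10 steps, then fixed, stained and imaged at 4× after 5 days.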
# NCI-H1703 = tested on: NCI-H1703
# Procedure, shortened: as §1
# IA-LM = tested on: IA-LM
# Procedure, shortened: as §1
# NCI-H1299 = tested on: NCI-H1299
# Procedure, shortened: as §1
# Calu-6 = tested on: Calu-6
# Procedure, shortened: as §1
# NCI-H1648 = tested on: NCI-H1648
# Procedure, shortened: as §1
# EBC-1 = tested on: EBC-1
# Procedure, shortened: as §1
# NCI-H1355 = tested on: NCI-H1355
# Procedure, shortened: as §1
# NCI-H1623 = tested on: NCI-H1623
# Procedure, shortened: as §1
smiles,measurement,setting,value
Clc1ccc(Nc2nnc(Cc3ccncc3)c3ccccc23)cc1 [Vatalanib] + O=C(c1cc(Cc2n[nH]c(=O)c3ccccc23)ccc1F)N1CCN(C(=O)C2CC2)CC1 [Olaparib] (partner 8 µM),relative viability,A549; first compound 0.04 µM,0.478
same,relative viability,A549; first compound 0.1265 µM,0.302
same,relative viability,A549; first compound 0.4 µM,0.532
same,relative viability,A549; first compound 1.265 µM,0.239
same,relative viability,A549; first compound 4 µM,0.3
same,relative viability,NCI-H1703; first compound 0.04 µM,0.506
same,relative viability,NCI-H1703; first compound 0.4 µM,0.624
same,relative viability,NCI-H1703; first compound 1.265 µM,0.299
same,relative viability,NCI-H1703; first compound 4 µM,0.22
same,relative viability,IA-LM; first compound 0.04 µM,0.89
same,relative viability,IA-LM; first compound 0.1265 µM,0.843
same,relative viability,IA-LM; first compound 0.4 µM,0.831
same,relative viability,IA-LM; first compound 1.265 µM,0.701
same,relative viability,IA-LM; first compound 4 µM,0.645
same,relative viability,NCI-H1299; first compound 0.04 µM,0.986
same,relative viability,NCI-H1299; first compound 0.1265 µM,0.924
same,relative viability,NCI-H1299; first compound 0.4 µM,1.04
same,relative viability,NCI-H1299; first compound 1.265 µM,0.923
same,relative viability,NCI-H1299; first compound 4 µM,0.965
same,relative viability,Calu-6; first compound 0.1265 µM,0.567
same,relative viability,Calu-6; first compound 0.4 µM,0.539
same,relative viability,Calu-6; first compound 1.265 µM,0.554
same,relative viability,Calu-6; first compound 4 µM,0.541
same,relative viability,NCI-H1648; first compound 0.04 µM,0.943
same,relative viability,NCI-H1648; first compound 0.1265 µM,0.866
same,relative viability,NCI-H1648; first compound 0.4 µM,1.01
same,relative viability,NCI-H1648; first compound 1.265 µM,0.611
same,relative viability,NCI-H1648; first compound 4 µM,1.04
same,relative viability,EBC-1; first compound 0.04 µM,0.761
same,relative viability,EBC-1; first compound 0.1265 µM,0.59
same,relative viability,EBC-1; first compound 0.4 µM,0.817
same,relative viability,EBC-1; first compound 1.265 µM,0.663
same,relative viability,EBC-1; first compound 4 µM,0.654
same,relative viability,NCI-H1355; first compound 0.04 µM,0.732
same,relative viability,NCI-H1355; first compound 0.1265 µM,0.79
same,relative viability,NCI-H1355; first compound 0.4 µM,0.809
same,relative viability,NCI-H1355; first compound 1.265 µM,0.699
same,relative viability,NCI-H1355; first compound 4 µM,0.706
Clc1ccc(Nc2nnc(Cc3ccncc3)c3ccccc23)cc1 [Vatalanib] + CCNC(=O)c1noc(-c2cc(C(C)C)c(O)cc2O)c1-c1ccc(CN2CCOCC2)cc1 [Luminespib] (partner 0.01 µM),relative viability,NCI-H1623; first compound 0.04 µM,0.428
same,relative viability,NCI-H1623; first compound 0.1265 µM,0.616
same,relative viability,NCI-H1623; first compound 0.4 µM,0.579
same,relative viability,NCI-H1623; first compound 1.265 µM,0.471
same,relative viability,NCI-H1623; first compound 4 µM,0.478
same,relative viability,NCI-H1355; first compound 0.04 µM,0.74
same,relative viability,NCI-H1355; first compound 0.1265 µM,0.675
same,relative viability,NCI-H1355; first compound 0.4 µM,0.748
same,relative viability,NCI-H1355; first compound 1.265 µM,0.656
same,relative viability,NCI-H1355; first compound 4 µM,0.738
COc1cc(N2CCC(C(N)=O)CC2)ccc1Nc1nc(N)c(Cl)c(Nc2ccccc2S(=O)(=O)C(C)C)n1 [HG-5-88-01] + CCNC(=O)c1noc(-c2cc(C(C)C)c(O)cc2O)c1-c1ccc(CN2CCOCC2)cc1 [Luminespib] (partner 0.01 µM),relative viability,NCI-H1623; first compound 0.04 µM,0.539
same,relative viability,NCI-H1623; first compound 0.1265 µM,0.619
same,relative viability,NCI-H1623; first compound 0.4 µM,0.529
same,relative viability,NCI-H1623; first compound 4 µM,0.47
same,relative viability,NCI-H1355; first compound 0.04 µM,0.663
same,relative viability,NCI-H1355; first compound 0.1265 µM,0.753
same,relative viability,NCI-H1355; first compound 0.4 µM,0.703
same,relative viability,NCI-H1355; first compound 1.265 µM,0.617
same,relative viability,NCI-H1355; first compound 4 µM,0.809
C[C@@H]1CN(CC(=O)Nc2ccc3c(c2)Cc2cccc(-c4cc(=O)cc(N5CCOCC5)o4)c2S3)C[C@H](C)O1 + O=C(c1cc(Cc2n[nH]c(=O)c3ccccc23)ccc1F)N1CCN(C(=O)C2CC2)CC1 [Olaparib] (partner 8 µM),relative viability,A549; first compound 0.04 µM,0.239
same,relative viability,A549; first compound 0.1265 µM,0.334
same,relative viability,A549; first compound 0.4 µM,0.332
same,relative viability,A549; first compound 4 µM,0.0917
same,relative viability,NCI-H1703; first compound 0.04 µM,0.489
same,relative viability,NCI-H1703; first compound 0.1265 µM,0.407
same,relative viability,NCI-H1703; first compound 0.4 µM,0.295
same,relative viability,NCI-H1703; first compound 4 µM,0.208
same,relative viability,IA-LM; first compound 0.04 µM,0.844
same,relative viability,IA-LM; first compound 0.1265 µM,0.976
same,relative viability,IA-LM; first compound 0.4 µM,0.792
same,relative viability,IA-LM; first compound 4 µM,0.207
same,relative viability,NCI-H1299; first compound 0.04 µM,1.08
same,relative viability,NCI-H1299; first compound 0.1265 µM,1
same,relative viability,NCI-H1299; first compound 0.4 µM,1.05
same,relative viability,NCI-H1299; first compound 4 µM,0.488
same,relative viability,Calu-6; first compound 0.04 µM,0.646
same,relative viability,Calu-6; first compound 0.1265 µM,0.573
same,relative viability,Calu-6; first compound 0.4 µM,0.672
same,relative viability,Calu-6; first compound 4 µM,0.299
same,relative viability,NCI-H1648; first compound 0.04 µM,0.56
same,relative viability,NCI-H1648; first compound 0.1265 µM,1.08
same,relative viability,NCI-H1648; first compound 0.4 µM,0.879
same,relative viability,NCI-H1648; first compound 4 µM,0.56
same,relative viability,EBC-1; first compound 0.04 µM,0.736
same,relative viability,EBC-1; first compound 0.1265 µM,0.723
same,relative viability,EBC-1; first compound 0.4 µM,0.494
same,relative viability,EBC-1; first compound 4 µM,0.147
same,relative viability,NCI-H1355; first compound 0.04 µM,0.783
same,relative viability,NCI-H1355; first compound 0.1265 µM,0.699
same,relative viability,NCI-H1355; first compound 0.4 µM,0.664
same,relative viability,NCI-H1355; first compound 4 µM,0.482
CC(C)Oc1cc(Nc2nc(N[C@@H](C)c3ccc(F)cn3)ncc2Cl)n[nH]1 [AZ23] + N=C(N)NC(=N)NCCc1ccccc1 [Phenformin] (partner 250 µM),relative viability,NCI-H1623; first compound 0.01 µM,0.54
same,relative viability,NCI-H1623; first compound 0.03162 µM,0.618
same,relative viability,NCI-H1623; first compound 0.3162 µM,0.61
same,relative viability,A549; first compound 0.01 µM,0.181
same,relative viability,A549; first compound 0.03162 µM,0.227
same,relative viability,A549; first compound 0.3162 µM,0.176
same,relative viability,NCI-H1355; first compound 0.01 µM,0.462
same,relative viability,NCI-H1355; first compound 0.03162 µM,0.483
same,relative viability,NCI-H1355; first compound 0.3162 µM,0.455
C[C@@H]1CN(CC(=O)Nc2ccc3c(c2)Cc2cccc(-c4cc(=O)cc(N5CCOCC5)o4)c2S3)C[C@H](C)O1 + CCNC(=O)c1noc(-c2cc(C(C)C)c(O)cc2O)c1-c1ccc(CN2CCOCC2)cc1 [Luminespib] (partner 0.01 µM),relative viability,NCI-H1623; first compound 0.04 µM,0.439
same,relative viability,NCI-H1623; first compound 0.1265 µM,0.473
same,relative viability,NCI-H1623; first compound 0.4 µM,0.442
same,relative viability,NCI-H1623; first compound 4 µM,0.561
same,relative viability,NCI-H1355; first compound 0.04 µM,0.678
same,relative viability,NCI-H1355; first compound 0.1265 µM,0.693
same,relative viability,NCI-H1355; first compound 0.4 µM,0.704
same,relative viability,NCI-H1355; first compound 4 µM,0.805
CC(C)Oc1cc(Nc2nc(N[C@@H](C)c3ccc(F)cn3)ncc2Cl)n[nH]1 [AZ23] + Cc1nc(Nc2ncc(C(=O)Nc3c(C)cccc3Cl)s2)cc(N2CCN(CCO)CC2)n1 [Dasatinib] (partner 0.075 µM),relative viability,NCI-H1623; first compound 0.01 µM,0.503
same,relative viability,NCI-H1623; first compound 0.03162 µM,0.578
same,relative viability,NCI-H1623; first compound 0.3162 µM,0.57
same,relative viability,NCI-H1355; first compound 0.01 µM,0.793
same,relative viability,NCI-H1355; first compound 0.03162 µM,0.833
same,relative viability,NCI-H1355; first compound 0.3162 µM,0.633
COc1cc(N2CCC(C(N)=O)CC2)ccc1Nc1nc(N)c(Cl)c(Nc2ccccc2S(=O)(=O)C(C)C)n1 [HG-5-88-01] + Cc1nc(Nc2ncc(C(=O)Nc3c(C)cccc3Cl)s2)cc(N2CCN(CCO)CC2)n1 [Dasatinib] (partner 0.075 µM),relative viability,NCI-H1623; first compound 0.04 µM,0.533
same,relative viability,NCI-H1623; first compound 0.1265 µM,0.532
same,relative viability,NCI-H1623; first compound 0.4 µM,0.498
same,relative viability,NCI-H1623; first compound 4 µM,0.486
same,relative viability,NCI-H1355; first compound 0.04 µM,0.675
same,relative viability,NCI-H1355; first compound 0.1265 µM,0.77
same,relative viability,NCI-H1355; first compound 0.4 µM,0.597
same,relative viability,NCI-H1355; first compound 1.265 µM,0.574
same,relative viability,NCI-H1355; first compound 4 µM,0.388
Clc1ccc(Nc2nnc(Cc3ccncc3)c3ccccc23)cc1 [Vatalanib] + CC1(C)CCC(c2ccc(Cl)cc2)=C(CN2CCN(c3ccc(C(=O)NS(=O)(=O)c4ccc(N[C@H](CCN5CCOCC5)CSc5ccccc5)c(S(=O)(=O)C(F)(F)F)c4)cc3)CC2)C1 [Navitoclax] (partner 0.5 µM),relative viability,A549; first compound 0.04 µM,1.21
same,relative viability,A549; first compound 0.1265 µM,1.33
same,relative viability,A549; first compound 0.4 µM,1.31
same,relative viability,A549; first compound 1.265 µM,1.16
same,relative viability,A549; first compound 4 µM,1.06
same,relative viability,NCI-H1703; first compound 0.04 µM,0.994
same,relative viability,NCI-H1703; first compound 0.4 µM,1.71
same,relative viability,NCI-H1703; first compound 1.265 µM,0.643
same,relative viability,NCI-H1703; first compound 4 µM,0.301
same,relative viability,IA-LM; first compound 0.04 µM,0.869
same,relative viability,IA-LM; first compound 0.1265 µM,0.701
same,relative viability,IA-LM; first compound 0.4 µM,0.686
same,relative viability,IA-LM; first compound 1.265 µM,0.746
same,relative viability,IA-LM; first compound 4 µM,0.737
same,relative viability,NCI-H1299; first compound 0.04 µM,1.04
same,relative viability,NCI-H1299; first compound 0.1265 µM,1.05
same,relative viability,NCI-H1299; first compound 0.4 µM,1.06
same,relative viability,NCI-H1299; first compound 1.265 µM,1.04
same,relative viability,NCI-H1299; first compound 4 µM,1.06
same,relative viability,Calu-6; first compound 0.04 µM,0.919
same,relative viability,Calu-6; first compound 0.1265 µM,0.756
same,relative viability,Calu-6; first compound 0.4 µM,0.913
same,relative viability,Calu-6; first compound 1.265 µM,0.788
same,relative viability,Calu-6; first compound 4 µM,0.757
same,relative viability,EBC-1; first compound 0.04 µM,0.382
same,relative viability,EBC-1; first compound 0.1265 µM,0.396
same,relative viability,EBC-1; first compound 0.4 µM,0.46
same,relative viability,EBC-1; first compound 1.265 µM,0.368
same,relative viability,EBC-1; first compound 4 µM,0.328
same,relative viability,NCI-H1355; first compound 0.04 µM,0.962
same,relative viability,NCI-H1355; first compound 0.1265 µM,0.927
same,relative viability,NCI-H1355; first compound 0.4 µM,1.01
same,relative viability,NCI-H1355; first compound 1.265 µM,0.875
same,relative viability,NCI-H1355; first compound 4 µM,0.917
